Measured values from US10434147B2, “Treatment type 2 diabetes mellitus patients” (Sanofi-Aventis Deutschland GmbH, priority 2015, dated 2019).
Marks after values point to notes of the source that are not given here.

What was measured:
[1] = system: Patients with Type 2 Diabetes Insufficiently Controlled with Insulin Glargine with or without Metformin; assay: Insulin dose (insulin glargine, insulin glulisine), 26-week study; type: in vivo, human; conditions: for Insulin glargine dose change to Week 26, LS Mean difference (SE) of Lixisenatide vs. the labelled insulin glulisine arm / Insulin glargine dose, Change from baseline to Week 26 (LOCF), LS Mean (SE): ANCOVA; for Insulin glargine dose change to Week 26, LS Mean difference (SE) of Lixisenatide vs. the labelled insulin glulisine arm / Insulin glargine dose, Change from baseline to Week 26 (LOCF), LS Mean (SE) / Insulin glargine dose, Baseline, Mean (SD) / Insulin glargine dose, Baseline, Median / Insulin glargine dose, Week 26 (LOCF), Mean (SD) / Insulin glargine dose, Week 26 (LOCF), Median / Insulin glargine dose, Change from baseline to Week 26 (LOCF), Mean (SD) / Insulin glargine dose, Change from baseline to Week 26 (LOCF), Median: mITT population; for Insulin glargine dose, Baseline, Mean (SD) / Insulin glargine dose, Baseline, Median: Baseline (before IMP); for Insulin Glargine dose, LS mean + SE change from BL / Insulin Glargine dose, LS mean treatment difference (lixisenatide vs the labelled arm): Week 26
Source text: (§1) FIG. 6—Graphical study design. ^1 Insulin glargine should be injected subcutaneously once daily at dinner or breakfast time (according to patient's/investigators' preference). […] Meal used for insulin glulisine dosing should remain the same throughout the 26-week treatment period. ^4 Injection of insulin glulisine prior to breakfast, lunch and dinner.
(§2) Co-primary endpoints at 26 weeks were (1) non-inferiority (95% CI upper bound <0.4%) in HbA1c reduction with LIXI vs GLU-1 and (2) for LIXI vs GLU-3, either non-inferiority in HbA1c reduction (2a) OR superiority (one-sided α≤0.025) in body weight change (2b). FPG, PPG, IG dose, composite outcomes, AEs, and hypoglycemia were assessed.

[2] = system: Patients with Type 2 Diabetes Insufficiently Controlled with Insulin Glargine with or without Metformin; assay: HbA1c, randomized open-label active-controlled 3-arm 26-week study (GetGoal-Duo2); type: in vivo, human; conditions: for HbA1c change to Week 26, LS Mean difference (SE) of Lixisenatide vs. the labelled insulin glulisine arm / HbA1c, Change from baseline to Week 26 (LOCF), LS Mean (SE): ANCOVA; for HbA1c change to Week 26, LS Mean difference (SE) of Lixisenatide vs. the labelled insulin glulisine arm / HbA1c, Change from baseline to Week 26 (LOCF), LS Mean (SE) / HbA1c, Baseline, Mean (SD) / HbA1c, Baseline, Median / HbA1c, Week 26 (LOCF), Mean (SD) / HbA1c, Week 26 (LOCF), Median / HbA1c, Change from baseline to Week 26 (LOCF), Mean (SD) / HbA1c, Change from baseline to Week 26 (LOCF), Median: mITT population; for HbA1c, BL (end run-in) mean ± SD / HbA1c, Screening (start run-in) mean ± SD / HbA1c, Week 26 (LOCF) mean ± SD / HbA1c, LS mean treatment difference (lixisenatide vs the labelled arm), co-primary endpoint / HbA1c, LS mean ± SE change from BL: mITT; for HbA1c, Baseline, Mean (SD) / HbA1c, Baseline, Median: Baseline (before IMP); for HbA1c, Week 26 (LOCF) mean ± SD / HbA1c, LS mean treatment difference (lixisenatide vs the labelled arm), co-primary endpoint / HbA1c, LS mean ± SE change from BL: Example 2 table; for HbA1c, LS mean treatment difference (lixisenatide vs the labelled arm), co-primary endpoint / HbA1c, LS mean ± SE change from BL: Week 26
Source text: as §1, §2

[3] = system: Patients with Type 2 Diabetes Insufficiently Controlled with Insulin Glargine with or without Metformin; assay: Fasting plasma glucose, 26-week study; type: in vivo, human; conditions: for Fasting plasma glucose change to Week 26, LS Mean difference (SE) of Lixisenatide vs. the labelled insulin glulisine arm / Fasting plasma glucose, Change from baseline to Week 26 (LOCF), LS Mean (SE): ANCOVA; for Fasting plasma glucose change to Week 26, LS Mean difference (SE) of Lixisenatide vs. the labelled insulin glulisine arm / Fasting plasma glucose, Change from baseline to Week 26 (LOCF), LS Mean (SE) / Fasting plasma glucose, Baseline, Mean (SD) / Fasting plasma glucose, Baseline, Median / Fasting plasma glucose, Week 26 (LOCF), Mean (SD) / Fasting plasma glucose, Week 26 (LOCF), Median / Fasting plasma glucose, Change from baseline to Week 26 (LOCF), Mean (SD) / Fasting plasma glucose, Change from baseline to Week 26 (LOCF), Median: mITT population; for FPG, BL (end run-in) mean ± SD / FPG, Screening (start run-in) mean ± SD / FPG, Week 26 (LOCF) mean ± SD / FPG, LS mean treatment difference (lixisenatide vs the labelled arm) / FPG, LS mean ± SE change from BL: mITT; for Fasting plasma glucose, Baseline, Mean (SD) / Fasting plasma glucose, Baseline, Median: Baseline (before IMP); for FPG, LS mean treatment difference (lixisenatide vs the labelled arm) / FPG, LS mean ± SE change from BL: Week 26
Source text: as §1, §2

[4] = system: Patients with Type 2 Diabetes Insufficiently Controlled with Insulin Glargine with or without Metformin; parameters: species or system human; conditions: in vivo
Source text: Clinical symptoms that are considered to result from a hypoglycemic episode are, e.g., increased sweating, nervousness, asthenia/weakness, tremor, dizziness, increased appetite, palpitations, headache, sleep disorder, confusion, seizures, unconsciousness, coma.
as §2

[5] = system: Patients with Type 2 Diabetes Insufficiently Controlled with Insulin Glargine with or without Metformin; type: in vivo, human; conditions: for Reason for treatment discontinuation: Lack of efficacy: Randomized population, HbA1c above […] at Week 12 or later; for Reason for treatment discontinuation: Adverse event: human, in vivo

## Insulin Glulisine QD: insulin glulisine once daily, added to insulin glargine ± metformin (comparator arm)
[1]
  Insulin glargine dose change to Week 26, LS Mean difference (SE) of Lixisenatide vs. the labelled insulin glulisine arm: 0.76 (1.104) U
  Insulin glargine dose, Change from baseline to Week 26 (LOCF), LS Mean (SE): −0.06 (0.999) U
  Insulin glargine dose, Baseline, Mean (SD): 64.79 (32.09) U
  Insulin glargine dose, Baseline, Median: 58.00 U
  Insulin glargine dose, Week 26 (LOCF), Mean (SD): 63.89 (35.67) U
  Insulin glargine dose, Week 26 (LOCF), Median: 54.00 U
  Insulin glargine dose, Change from baseline to Week 26 (LOCF), Mean (SD): −0.91 (13.41) U
  Insulin glargine dose, Change from baseline to Week 26 (LOCF), Median: −1.33 U
[1]; mITT
  Insulin Glargine dose, BL (end run-in) mean ± SD: 65 ± 32 U/day
  Insulin Glargine dose, Week 26 (LOCF) mean ± SD: 64 ± 36 U/day
  Insulin Glargine dose, LS mean + SE change from BL: −0.1 ± 1.0 U/day
  Insulin Glargine dose, LS mean treatment difference (lixisenatide vs the labelled arm): 0.8 U/day
[1]; Screening (start run-in), mITT
  Insulin Glargine dose, Screening (start run-in) mean ± SD: 40 ± 22 U/day
[2]
  HbA1c change to Week 26, LS Mean difference (SE) of Lixisenatide vs. the labelled insulin glulisine arm: −0.05 (0.059) %
  HbA1c, Change from baseline to Week 26 (LOCF), LS Mean (SE): −0.58 (0.054) %
  HbA1c, BL (end run-in) mean ± SD: 7.7 ± 0.6%
  HbA1c, Baseline, Mean (SD): 7.72 (0.58) %
  HbA1c, Baseline, Median: 7.70%
  HbA1c, Screening (start run-in) mean ± SD: 8.5 ± 0.7%
  HbA1c, Week 26 (LOCF), Mean (SD): 7.21 (0.79) %
  HbA1c, Week 26 (LOCF), Median: 7.10%
  HbA1c, Week 26 (LOCF) mean ± SD: 7.2 ± 0.8%
  HbA1c, LS mean treatment difference (lixisenatide vs the labelled arm), co-primary endpoint: −0.1^† %
  HbA1c, LS mean ± SE change from BL: −0.6 ± 0.1%
  HbA1c, Change from baseline to Week 26 (LOCF), Mean (SD): −0.51 (0.80) %
  HbA1c, Change from baseline to Week 26 (LOCF), Median: −0.50%
[3]
  Fasting plasma glucose change to Week 26, LS Mean difference (SE) of Lixisenatide vs. the labelled insulin glulisine arm: −0.01 (0.157) mmol/L
  Fasting plasma glucose, Change from baseline to Week 26 (LOCF), LS Mean (SE): −0.21 (0.142) mmol/L
  FPG, BL (end run-in) mean ± SD: 123 ± 36 mg/dL
  Fasting plasma glucose, Baseline, Mean (SD): 6.85 (1.99) mmol/L
  Fasting plasma glucose, Baseline, Median: 6.50 mmol/L
  FPG, Screening (start run-in) mean ± SD: 167 ± 52 mg/dL
  FPG, Week 26 (LOCF) mean ± SD: 120 ± 35 mg/dL
  Fasting plasma glucose, Week 26 (LOCF), Mean (SD): 6.66 (1.94) mmol/L
  Fasting plasma glucose, Week 26 (LOCF), Median: 6.40 mmol/L
  FPG, LS mean treatment difference (lixisenatide vs the labelled arm): 0 mg/dL
  FPG, LS mean ± SE change from BL: -4 ± 3 mg/dL
  Fasting plasma glucose, Change from baseline to Week 26 (LOCF), Mean (SD): −0.19 (2.52) mmol/L
  Fasting plasma glucose, Change from baseline to Week 26 (LOCF), Median: -0.10 mmol/L
[4]
  Any symptomatic hypoglycemia: Number of events: 395
  Any symptomatic hypoglycemia: Number of events per 100 patient years: 266.4 per 100 patient years
  Any symptomatic hypoglycemia: Number of patients with events per 100 patient years: 78.9 per 100 patient years
  Documented Symptomatic Hypoglycemia at Week 26, % pts: 37.5 (p = 0.144) % pts
  Documented Symptomatic Hypoglycemia at Week 26, No. of events: 384
  Documented Symptomatic Hypoglycemia at Week 26, No. of events/pt years: 2.6 events/pt years
  Severe Hypoglycemia, no. of pts with events: 2
[5]
  Reason for treatment discontinuation: Lack of efficacy: 4 (1.3%) n (%)
  Reason for treatment discontinuation: Adverse event: 2 (0.7%) n (%)

## Insulin Glulisine TID: insulin glulisine three times daily, added to insulin glargine ± metformin (comparator arm)
[1]
  Insulin glargine dose change to Week 26, LS Mean difference (SE) of Lixisenatide vs. the labelled insulin glulisine arm: 3.83 (1.106) U
  Insulin glargine dose, Change from baseline to Week 26 (LOCF), LS Mean (SE): −3.13 (0.982) U
  Insulin glargine dose, Baseline, Mean (SD): 65.05 (27.01) U
  Insulin glargine dose, Baseline, Median: 60.67 U
  Insulin glargine dose, Week 26 (LOCF), Mean (SD): 61.16 (29.33) U
  Insulin glargine dose, Week 26 (LOCF), Median: 57.00 U
  Insulin glargine dose, Change from baseline to Week 26 (LOCF), Mean (SD): −3.89 (13.28) U
  Insulin glargine dose, Change from baseline to Week 26 (LOCF), Median: −4.00 U
[1]; mITT
  Insulin Glargine dose, BL (end run-in) mean ± SD: 65 ± 27 U/day
  Insulin Glargine dose, Week 26 (LOCF) mean ± SD: 61 ± 29 U/day
  Insulin Glargine dose, LS mean + SE change from BL: −3.1 ± 1.0 U/day
  Insulin Glargine dose, LS mean treatment difference (lixisenatide vs the labelled arm): 3.9 U/day
[2]
  HbA1c change to Week 26, LS Mean difference (SE) of Lixisenatide vs. the labelled insulin glulisine arm: 0.21 (0.059) %
  HbA1c, Change from baseline to Week 26 (LOCF), LS Mean (SE): −0.84 (0.053) %
  HbA1c, BL (end run-in) mean ± SD: 7.8 ± 0.6%
  HbA1c, Baseline, Mean (SD): 7.79 (0.60) %
  HbA1c, Baseline, Median: 7.70%
  HbA1c, Screening (start run-in) mean ± SD: 8.5 ± 0.8%
  HbA1c, Week 26 (LOCF), Mean (SD): 6.96 (0.73) %
  HbA1c, Week 26 (LOCF), Median: 7.00%
  HbA1c, Week 26 (LOCF) mean ± SD: 7.0 ± 0.7%
  HbA1c, LS mean treatment difference (lixisenatide vs the labelled arm), co-primary endpoint: 0.2^† %
  HbA1c, LS mean ± SE change from BL: −0.8 ± 0.1%
  HbA1c, Change from baseline to Week 26 (LOCF), Mean (SD): −0.82 (0.78) %
  HbA1c, Change from baseline to Week 26 (LOCF), Median: −0.90%
[3]
  Fasting plasma glucose change to Week 26, LS Mean difference (SE) of Lixisenatide vs. the labelled insulin glulisine arm: −0.17 (0.158) mmol/L
  Fasting plasma glucose, Change from baseline to Week 26 (LOCF), LS Mean (SE): −0.06 (0.140) mmol/L
  FPG, BL (end run-in) mean ± SD: 120 ± 34 mg/dL
  Fasting plasma glucose, Baseline, Mean (SD): 6.65 (1.89) mmol/L
  Fasting plasma glucose, Baseline, Median: 6.40 mmol/L
  FPG, Screening (start run-in) mean ± SD: 171 ± 53 mg/dL
  FPG, Week 26 (LOCF) mean ± SD: 121 ± 36 mg/dL
  Fasting plasma glucose, Week 26 (LOCF), Mean (SD): 6.71 (2.02) mmol/L
  Fasting plasma glucose, Week 26 (LOCF), Median: 6.50 mmol/L
  FPG, LS mean treatment difference (lixisenatide vs the labelled arm): -3 mg/dL
  FPG, LS mean ± SE change from BL: -1 ± 3 mg/dL
  Fasting plasma glucose, Change from baseline to Week 26 (LOCF), Mean (SD): 0.05 (2.47) mmol/L
  Fasting plasma glucose, Change from baseline to Week 26 (LOCF), Median: -0.20 mmol/L
[4]
  Any symptomatic hypoglycemia: Number of events: 600
  Any symptomatic hypoglycemia: Number of events per 100 patient years: 410.4 per 100 patient years
  Any symptomatic hypoglycemia: Number of patients with events per 100 patient years: 90.3 per 100 patient years
  Documented Symptomatic Hypoglycemia at Week 26, % pts: 44.6 (p = 0.001) % pts
  Documented Symptomatic Hypoglycemia at Week 26, No. of events: 595
  Documented Symptomatic Hypoglycemia at Week 26, No. of events/pt years: 4.1 events/pt years
  Severe Hypoglycemia, no. of pts with events: 0
[5]
  Reason for treatment discontinuation: Lack of efficacy: 0 n (%)
  Reason for treatment discontinuation: Adverse event: 5 (1.7%) n (%)
